Patent US20210290676A1, “IMPROVING THE EFFICACY AND SAFETY OF ADOPTIVE CELLULAR THERAPIES” (University of Southern California, priority 2018, published 2021)

Assays:
Format in all cases: cell-based, human
[1] = tested on: Pgp+ (DiOC2(3)-dye effluxing) T cells; experiment: DiOC2(3) dye efflux flow cytometry of inhibitor-treated T cells; details: treatment for 13 days, IL2 + CD3 and CD28 antibodies
Experimental: (§1) The use of P-glycoprotein (Pgp)-mediated efflux of DiOC2(3) to isolate stem like T cells for adoptive cellular therapy has been described in application no. […] In the following examples, DiOC2(3) staining was used to study the effect of different inhibitors on generation of stem like T cells.
(§2) DAY 0: Blood was obtained from unidentified donor. After RBC lysis, PBMC were collected using Ficoll-Hypaque separation. […] T cells were cultured in three different conditions: • 1. XVIVO 15 medium (Lonza) with IL2 50 IU/ml, CD3 antibody (30 ng/ml) and CD28 antibody (30 ng/ml). • 2. XVIVO 15 medium (Lonza) with CD3 antibody (30 ng/ml) and CD28 antibody (30 ng/ml). • 3. XVIVO 15 medium (Lonza) with IL2 50 IU/ml DAY 1: Cells were plated in a 6-well plate at a density of 1 million cells in 2 ml/of media (as described above) and treated with different inhibitors
(§3) The cell growth medium was changed in 6-well plates and fresh drugs were added at same concentration for one more week.
(§4) […] (DAY 11): Culture medium was changed and fresh drugs were added in 6-well plates.
(§5) Subsequently, cells were washed with RPMI medium and dye was effluxed at 37° C. for 90 min. Cells were washed with […], stained with CD62L-APC (5 μl/100 μl/sample) at 4° C. for 1 h, washed twice with PBS+1% FBS and analyzed on flow cytometer to check if these drugs treatment leads to increase in Pgp+/CD62L positive population.
(§6) Day 0: Blood was obtained from unidentified donor. After RBC lysis, PBMC were collected using Ficoll-Hypaque separation. 200 million T cells were isolated from PBMCs using CD3 microbeads. T cells were cultured overnight in XVIVO 15 medium (Lonza) with IL2 (50 IU/ml), 30 ng/ml of CD3 and CD28 antibodies
(§7) Day 1: Cells were plated in 24-well plates at a density of 0.3 million cells/ml in each well and treated with different drugs.
(§8) On day 7, culture medium was replaced with fresh medium with fresh drugs.
(§9) On day 13, culture medium was replaced with fresh medium and fresh drugs. Half of the cells were transferred to 6-well plates.
(§10) Day 14: An aliquot of cells with all the treatments listed above (for 13 days) was used to stain the cells with DiOC2(3) (60 ng/ml in RPMI medium) at 4° C. for 40 min, washed with RPMI medium, DiOC2(3) dye was effluxed at 37° C. for 90 min, washed with PBS+1% FBS, stained with CD62L-APC antibody. CD62L is a marker for resting T cells. (5 μl/100 μl/sample) at 4° C. for 1 h, washed twice with PBS+1% FBS and analyzed on flow cytometer to check if these drugs are affecting the dye-effluxing or Pgp+ (i.e., DiOC2(3)-dull) T-cell population.

[2] = tested on: Pgp+ (DiOC2(3)-dye effluxing cells) and CD62L+ T cells; experiment: DiOC2(3) dye efflux plus CD62L-APC staining, flow cytometry of inhibitor-treated T cells; details: treatment for 13 days, IL2 + CD3 and CD28 antibodies
Experimental: as §1, §2, §3, §4, §5, §6, §7, §8, §9, §10

[3] = tested on: CD8+CD45RA+CCR7+CD62L+ T cells; experiment: Flow cytometry for CD8, CD45RA, CCR7 and CD62L on inhibitor-treated T cells; details: cells cultured for 14 days
Experimental: as §2
(§11) A second aliquot of the cells cultured for 13 days with all the treatments listed above (1-21) was washed with PBS+1% FBS, stained with CD8-PerCP, CD45RA-FITC, CCR7-PE and CD62L-APC (5% Y/100 μl/sample for each of 4 antibodies) at 4° C. for 1 h, washed twice with PBS+100 FBS and analyzed on flow cytometer to check if these drugs are enriching T stem cells showing surface expression of CD8+CD45RA+CCR7+CD62L+.
as §6, §7, §8, §9
as §11, with “14” for “13”, “above” for “above (1-21)”, “(5 ul/100 ul/sample” for “(5% Y/100 μl/sample”, “PBS+1%” for “PBS+100”, “enriching for” for “enriching”, “T” for “T stem”

[4] = tested on: CD45RA+CCR7+CD62L+ T cells; experiment: Flow cytometry for CD45RA, CCR7 and CD62L on inhibitor-treated T cells (all T cells); details: cells cultured for 14 days
Experimental: as §2, §11, §6, §7, §8, §9
as §11, with “14” for “13”, “above” for “above (1-21)”, “(5 ul/100 ul/sample” for “(5% Y/100 μl/sample”, “PBS+1%” for “PBS+100”, “enriching for” for “enriching”, “T” for “T stem”

Compound	p2: pgp+ from Live cells ([1]; 100 nM)	p2: pgp+ from Live cells ([1]; 500 nM)	p5: double +ve pgp+ and CD62L-APC+ from Live cells ([2]; 100 nM)	p5: double +ve pgp+ and CD62L-APC+ from Live cells ([2]; 500 nM)	GATE P4 CD8(PerCP)+, CD45RA(FITC)+, CCR7 (PE)+, CD62L(APC) ([3]; 100 nM) [%]	GATE P4 CD8(PerCP)+, CD45RA(FITC)+, CCR7 (PE)+, CD62L(APC) ([3]; 500 nM) [%]	GATE P6 CD45RA(FITC)+, CCR7 (PE)+, CD62L(APC) ([4]; 100 nM) [%]	GATE P6 CD45RA(FITC)+, CCR7 (PE)+, CD62L(APC) ([4]; 500 nM) [%]
Cc1ccc(Cl)c(Nc2ccccc2C(=O)O)c1Cl [MECLO]	22.22	20.11	3.74	3.72	57.65	75.78	53.02	66.64
O=C1CN=C(c2ccc[nH]2)c2cc(Cl)ccc2N1 [R05335]	14.71	16.22	2.55	2.3	–	79.9	–	69.95
CCN(c1cc(-c2ccc(CN3CCOCC3)cc2)cc(C(=O)NCc2c(C)cc(C)[nH]c2=O)c1C)C1CCOCC1 [TAZE]	42.9	–	14.5	–	59.72	–	52.24	–
